Results from ChEMBL document CHEMBL5331050, “Spiro[benzoxazine-piperidin]-one derivatives as chitin synthase inhibitors and antifungal agents: Design, synthesis and biological evaluation” (Eur J Med Chem, 2022).
Values after ≈ are worked out from the molar mass of the structure shown. *1 amine or outer side, *2 acyl side, *3 side chain or, on linkers, in order; H or OH if unused. Where a SMILES comes first, the peptide text is derived from it. Bridges are numbered along the chain shown (N, C = ends). [ ]: non-standard residue; d: D form. The star is where a group is joined. hTyr(3S-OH,4S-OH,3'-OSO3H) = N[C@H](C(=O)O)[C@H](O)[C@@H](O)c1ccc(O)c(OS(=O)(=O)O)c1; Orn(4R-OH,5R-OH) = O=C([C@H](C[C@@H](O)[C@@H](O)N[*:3])N[*:1])[*:2]; Pro(3S-OH,4S-Me) = C[C@H]1CN[C@H](C(=O)O)[C@H]1O; X1 = CCCCCOc1ccc(-c2cc(-c3ccc(C(=O)*)cc3)no2)cc1; Gln(3R-OH) = NC(=O)C[C@@H](O)[C@H](N)C(=O)O; Hyp = O=C(O)[C@@H]1C[C@@H](O)CN1

Assays:
Aspergillus flavus [1] = assay: Antifungal activity against Aspergillus flavus ATCC 16870 assessed as fungal growth inhibition incubated for 24 hrs by CLSI protocol based broth microdilution method; type: functional
Candida albicans [2] = assay: Antifungal activity against Candida albicans ATCC 76615 assessed as fungal growth inhibition incubated for 24 hrs by CLSI protocol based broth microdilution method; type: functional
Aspergillus fumigatus [3] = assay: Antifungal activity against Aspergillus fumigatus GIMCC 3.19 assessed as fungal growth inhibition incubated for 24 hrs by CLSI protocol based broth microdilution method; type: functional
Candida tropicalis = assay: Inhibition of Candida tropicalis ATCC 750 chitin synthase using UDP-GlcNAc as substrate at 300 ug/ml incubated for 1 hrs by absorbance based assay relative to control; conditions: dose 300.0 µg/ml
Cryptococcus neoformans [4] = assay: Antifungal activity against Cryptococcus neoformans ATCC 208821 assessed as fungal growth inhibition incubated for 24 hrs by CLSI protocol based broth microdilution method; type: functional
Cryptococcus neoformans [5] = assay: Synergistic antifungal activity against Cryptococcus neoformans ATCC 208821 assessed as fungal growth inhibition incubated for 24 hrs in the presence of fluconazole by broth dilution based checkerboard method; type: functional
Cryptococcus neoformans [6] = assay: Synergistic antifungal activity against Cryptococcus neoformans ATCC 208821 assessed as fractional inhibitory concentration index incubated for 24 hrs in the presence of fluconazole by broth dilution based checkerboard method; type: functional
Candida albicans [7] = assay: Synergistic antifungal activity against Candida albicans ATCC 76615 assessed as fungal growth inhibition incubated for 24 hrs in the presence of fluconazole by broth dilution based checkerboard method; type: functional
Aspergillus flavus [8] = assay: Synergistic antifungal activity against Aspergillus flavus ATCC 16870 assessed as fungal growth inhibition incubated for 24 hrs in the presence of fluconazole by broth dilution based checkerboard method; type: functional
Aspergillus flavus [9] = assay: Synergistic antifungal activity against Aspergillus flavus ATCC 16870 assessed as fractional inhibitory concentration index incubated for 24 hrs in the presence of fluconazole by broth dilution based checkerboard method; type: functional
Aspergillus fumigatus [10] = assay: Synergistic antifungal activity against Aspergillus fumigatus GIMCC 3.19 assessed as fungal growth inhibition incubated for 24 hrs in the presence of fluconazole by broth dilution based checkerboard method; type: functional
Aspergillus fumigatus [11] = assay: Synergistic antifungal activity against Aspergillus fumigatus GIMCC 3.19 assessed as fractional inhibitory concentration index incubated for 24 hrs in the presence of fluconazole by broth dilution based checkerboard method; type: functional
Candida albicans [12] = assay: Synergistic antifungal activity against Candida albicans ATCC 76615 assessed as fractional inhibitory concentration index incubated for 24 hrs in the presence of fluconazole by broth dilution based checkerboard method; type: functional
[13] = Inhibition of Candida tropicalis ATCC 750 chitin synthase using UDP-GlcNAc as substrate incubated for 1 hrs by absorbance based assay
Candida albicans [14] = assay: Antifungal activity against micafungin-resistant Candida albicans ATCC 76615R assessed as fungal growth inhibition; type: functional

SMILES | MIC (Aspergillus flavus [1]) [µg/mL] | MIC (Candida albicans [2]) [µg/mL] | MIC (Aspergillus fumigatus [3]) [µg/mL] | inhibition (Candida tropicalis) [%] | MIC (Cryptococcus neoformans [4]) [µg/mL] | MIC (Cryptococcus neoformans [5]) [µg/mL] | fractional inhibitory concentration index (FICI) (Cryptococcus neoformans [6]) | MIC (Candida albicans [7]) [µg/mL] | MIC (Aspergillus flavus [8]) [µg/mL] | fractional inhibitory concentration index (FICI) (Aspergillus flavus [9]) | MIC (Aspergillus fumigatus [10]) [µg/mL] | fractional inhibitory concentration index (FICI) (Aspergillus fumigatus [11]) | fractional inhibitory concentration index (FICI) (Candida albicans [12]) | IC50 [13] [µM] | MIC (Candida albicans [14]) [µg/mL]
COc1ccc2c(c1)C1(CCN(C(=O)C(O)C(O)C(=O)Nc3ccccc3)CC1)OC(=O)N2 (configuration not stated) | 512 (≈ 1120 µM) | 512 (≈ 1120 µM) | 512 (≈ 1120 µM) | 41 | > 512 |  |  |  |  |  |  |  |  |  | 
COc1ccc2c(c1)C1(CCN(C(=O)/C=C/C(=O)Nc3ccccc3Cl)CC1)OC(=O)N2 | 32 (≈ 70.2 µM) | 16 (≈ 35.1 µM) | 32 (≈ 70.2 µM) | 36 | 32 (≈ 70.2 µM) | 16 | 0.625 | 16 | 13.3 | 1.42 | 64 | 2 | 1.125 |  | 
COc1ccc2c(c1)C1(CCN(C(=O)CCC(=O)Nc3ccccc3)CC1)OC(=O)N2 | 256 (≈ 605 µM) | > 512 | > 512 | 6 | > 512 |  |  |  |  |  |  |  |  |  | 
COc1ccc2c(c1)C1(CCN(C(=O)/C=C/C(=O)Nc3ccc(C(F)(F)F)cc3)CC1)OC(=O)N2 | 128 (≈ 262 µM) | 512 (≈ 1050 µM) | > 512 | 15 | 256 (≈ 523 µM) |  |  |  |  |  |  |  |  |  | 
COc1ccc(NC(=O)CC(=O)N2CCC3(CC2)OC(=O)Nc2ccc(OC)cc23)cc1 | > 512 | 512 (≈ 1170 µM) | 256 (≈ 583 µM) | 16 | > 512 |  |  |  |  |  |  |  |  |  | 
COc1ccc2c(c1)C1(CCN(C(=O)/C=C/C(=O)Nc3ccccc3Br)CC1)OC(=O)N2 | 64 (≈ 128 µM) | 256 (≈ 512 µM) | 128 (≈ 256 µM) | 40 | 256 (≈ 512 µM) |  |  |  |  |  |  |  |  |  | 
COc1ccc2c(c1)C1(CCN(C(=O)C(O)C(O)C(=O)Nc3ccc(C)cc3)CC1)OC(=O)N2 (configuration not stated) | > 512 | > 512 | 256 (≈ 545 µM) | 43 | > 512 |  |  |  |  |  |  |  |  |  | 
COc1ccc2c(c1)C1(CCN(C(=O)/C=C/C(=O)Nc3ccccc3OC)CC1)OC(=O)N2 | 128 (≈ 284 µM) | 64 (≈ 142 µM) | 128 (≈ 284 µM) | 60 | 256 (≈ 567 µM) |  |  |  |  |  |  |  |  | 330 | 
COc1ccc2c(c1)C1(CCN(C(=O)CCC(=O)Nc3ccc(C)cc3)CC1)OC(=O)N2 | 256 (≈ 585 µM) | 128 (≈ 293 µM) | > 512 | 11 | 256 (≈ 585 µM) |  |  |  |  |  |  |  |  |  | 
COc1ccc(NC(=O)CCC(=O)N2CCC3(CC2)OC(=O)Nc2ccc(OC)cc23)cc1 | > 512 | > 512 | 256 (≈ 565 µM) | 17 | 256 (≈ 565 µM) |  |  |  |  |  |  |  |  |  | 
COc1ccc2c(c1)C1(CCN(C(=O)/C=C/C(=O)Nc3cccc([N+](=O)[O-])c3)CC1)OC(=O)N2 | 256 (≈ 549 µM) | 128 (≈ 274 µM) | 107 (≈ 229 µM) | 34 | 256 (≈ 549 µM) |  |  |  |  |  |  |  |  |  | 
COc1ccc2c(c1)C1(CCN(C(=O)/C=C/C(=O)Nc3cccc(C)c3)CC1)OC(=O)N2 | > 512 | 256 (≈ 588 µM) | > 512 | 42 | > 512 |  |  |  |  |  |  |  |  |  | 
COc1ccc2c(c1)C1(CCN(C(=O)/C=C/C(=O)Nc3cc(C)cc(C)c3)CC1)OC(=O)N2 | 512 (≈ 1140 µM) | 512 (≈ 1140 µM) | > 512 | 16 | > 512 |  |  |  |  |  |  |  |  |  | 
COc1ccc2c(c1)C1(CCN(C(=O)/C=C/C(=O)Nc3ccc(C(F)(F)F)cc3C(F)(F)F)CC1)OC(=O)N2 | > 512 | 256 (≈ 459 µM) | > 512 | 30 | > 512 |  |  |  |  |  |  |  |  |  | 
CCCCCOc1ccc(-c2cc(-c3ccc(C(=O)N[C@H]4C[C@@H](O)[C@@H](O)NC(=O)[C@@H]5[C@@H](O)[C@@H](C)CN5C(=O)[C@H]([C@H](O)CC(N)=O)NC(=O)[C@H]([C@H](O)[C@@H](O)c5ccc(O)c(OS(=O)(=O)O)c5)NC(=O)[C@@H]5C[C@@H](O)CN5C(=O)[C@H]([C@@H](C)O)NC4=O)cc3)no2)cc1 [MICAFUNGIN] (X1-[Orn(4R-OH,5R-OH)]T[Hyp][hTyr(3S-OH,4S-OH,3'-OSO3H)][Gln(3R-OH)][Pro(3S-OH,4S-Me)]; lactam 1-C) |  | 0.063 (≈ 0.0496 µM) |  |  | > 512 |  |  |  |  |  |  |  |  |  | 256 (≈ 202 µM)
COc1ccc2c(c1)C1(CCN(C(=O)CC(=O)Nc3ccccc3)CC1)OC(=O)N2 | 256 (≈ 625 µM) | 512 (≈ 1250 µM) | > 512 | 16 | 256 (≈ 625 µM) |  |  |  |  |  |  |  |  |  | 
